Measurements published in patent publication US20240272165A1, “A METHOD TO IDENTIFY EXCEPTIONAL ANTI-TUMOR BENEFIT FROM BRAF TARGETED THERAPIES” (The Brigham and Women's Hospital, priority 2021, published 2024).

Experiments:
[1] = system: Malme3M; assay: growth rate effect of drugs in sgGAPDHS genome-edited cells versus control; type: cell-based; conditions: spCas9/sgGAPDHS genome-editing
Description: FIGS. 8A-8C. GAPDHS is required for BRAF inhibitor sensitivity in vitro. Lentiviral spCas9/sgGAPDHS genome-editing in Malme3M 8A) reduces protein levels (WB) but not signaling consequences following vemurafenib or PD-0325901. 8B) reduction in the inherent NAD+/NADH ratio is seen, but not treatment affected changes; however the basal NADP+/NADPH ratio is higher and treatment causes divergent changes. 8C) Growth rates are less affected by vemurafenib, PD-0325901, cobimetinib, and PLX7904 due to sgGAPDHS targeting. Significance using 2-sided, 2-sample t-test; *p<0.05; **p<0.01.
We generated short-guide RNA (sgRNA) for CRISPR/Cas9-mediated genome-editing within the pLentiCRISPRv2 system to assess whether GAPDHS regulates sensitivity to BRAF-targeted drugs through the metabolic state. […] (FIG. 8C). […] We will expand these analyses to also include SKMEL28 and UACC62, and assess dabrafenib and encorafenib. We will also measure basal and changes following BRAF/MEK-inhibitor on the inherent metabolic state, measured as NAD(P)+/NAD(P)H ratios and GAPDH/S activity.

[2] = system: SKMEL2(NRAS-Q61R); assay: drug-mediated growth inhibition as percentage of baseline doubling rate; type: cell-based; conditions: NRAS-mutant SKMEL2
Description: FIGS. 5A-5B. Response to BRAF/MEK inhibition in melanoma cells was associated with the inherent metabolic state. 5A) Effects on cell doubling rates caused by vemurafenib and PD0325901 treatment in melanoma and carcinoma cell lines. […] 5B) Pearson metric of PD-0325901 growth rate effects used on gene-level transcription data (HuExon 1.0ST) for Gene Set Enrichment Analysis (GSEA) identified specific pathways associated with sensitivity, particularly oxidative phosphorylation, and resistance to BRAF/MEK inhibition.
Because melanoma cells undergo metabolic shift in response to BRAF- and MEK-targeted therapy, we wanted to characterize the drug sensitivities across a melanoma cell line cohort (FIG. 4A). To ensure that rapidly growing cells versus slow were compared in a normalized manner, we assessed the degree of drug-mediated growth inhibition as percentage of the baseline doubling rate for each cell line (FIG. 5A). This approach was based on classical chemotherapy effect measures [26;27 recently used by others].

Cc1nc(NC(=O)N2CCC[C@H]2C(N)=O)sc1-c1ccnc(C(C)(C)C(F)(F)F)c1 [BYL719]
sensitivity (measured as growth rate effect) of sgGAPDHS cells versus control [1]: did not, however, observe reduced sensitivity

O=C(c1ccc(F)c(F)c1Nc1ccc(I)cc1F)N1CC(O)([C@@H]2CCCCN2)C1 [cobimetinib]
sensitivity (measured as growth rate effect) of sgGAPDHS cells versus control [1]: reduced sensitivity

CCCS(=O)(=O)Nc1ccc(F)c(C(=O)c2c[nH]c3ncc(-c4ccc(Cl)cc4)cc23)c1F [vemurafenib]
doubling rate under BRAF inhibitor, % of normal doubling rate [2]: 100%

O=C(NOC[C@H](O)CO)c1ccc(F)c(F)c1Nc1ccc(I)cc1F [PD-0325901]
sensitivity (measured as growth rate effect) of sgGAPDHS cells versus control [1]: reduced sensitivity

CCN(C)S(=O)(=O)Nc1ccc(F)c(C(=O)c2c[nH]c3ncc(-c4cnc(C5CC5)nc4)cc23)c1F [PLX7904]
sensitivity (measured as growth rate effect) of sgGAPDHS cells versus control [1]: reduced sensitivity
